In data set [1] the test system is P388 murine leukemia cells. Nature of the data set: Malignant cell cytotoxicity, one-hour exposure (clonogenic survival in soft agar). It counts as cell-based. Particulars: Mus musculus, 1 hr exposure, read-out: IC50 P388 1 hr. exp. As for the experimental part:
(§1) Examples of compound I having Topo II activity were tested for malignant cell cytotoxicity. In vitro cytotoxicity was assayed by determining cell survival following exposure of P388 murine leukemia cells to a range of test compound concentrations. Cytotoxicity was quantitated following either a one-hour exposure or continuous exposure of P388 cells to test compound.
(§2) Cytotoxicity following a one-hour exposure of cells to drug was assayed by quantitating clonogenic cell survival according to a published procedure [Freshney, R. L. (1987) Culture of Animal Cells. A Manual of Basic Technique. Wiley-Liss Inc., New York, N.Y., pp. 140-144]. Briefly, following drug exposure cells were plated in soft agar and incubated (37°, 5% CO2) for 7-10 days during which time viable cells form visible colonies. Cytotoxicity following continuous exposure of cells to test compound was assayed by quantitating total P388 cells on a Coultier Counter following a 48-hour co-incubation of test compound with cells. P388 cells were maintained in log phase throughout the duration of cytotoxicity assays.
(§3) The percentage of cells surviving relative to an untreated control was graphed as a function of increasing drug concentration.

Data set [2] has as its system P388 murine leukemia cells. Nature of the data set: Malignant cell cytotoxicity, continuous 48-hour exposure (Coulter Counter). It counts as cell-based. To be noted: Mus musculus, read-out: IC50 P388 cont. exp. How it is done:
as §1, §2, §3

Data set [3] is described as follows: In vivo antitumor assay, B16(ip). Particulars: mouse, in vivo, drug route ip, qd 1,5,9. More on the design: species or system mouse. The source says: (§4) Mice: Inbred: C3H/He and NCR-nu; and Hybrids: B6D2Fl (C57BL/6 females X DBA/2 males, CD2Fl (Balb/c females X DBS/2 males) and B6x C3fl (C57BL/6 x C3H) were bred at Wayne State University from strained obtained from the Frederick Cancer Research Facility, Frederick, Md. or purchased from commercial suppliers.
(§5) Tumors: Murine Tumor: P388 and an adriamycin-resistant (ADR) subline P388/ADR leukemia and the following transplantable solid tumors of mice were used for in Vivo testing: B16 melanoma (B16), pancreatic ductal adenocarcinoma No. 03 (Panc 03), colon adenocarcinoma No. 38 (colo 38), mammary ductal adenocarcinoma No. 16/C (Mam16) and an adriamycin-resistantsubline Mam16C/ADR. Human tumor: A single human tumor, mammary carcinoma MX-1 (MX1) was used for in vivo testing. All tumors are in the Developmental Therapeutics Program frozen tumor respository, maintained by the Biological Testing Branch, Frederick Md. Each has a detailed description, code identification number, and list of references at the National Tumor Repository. Murine tumors were maintained in the mouse strain of origin and were transplanted in the appropriate F1 hydrid (or the strain of origin) for therapy trials. Human mammary carcinoma MX-1 MX1) was maintained as a subcutaneous implant in either athymic Swiss (Cr: NIH(S)-nu) or athymic random bred (NCR-nu) mice and transplanted in NCR-nu for therapy trials.
(§6) For P388 and P388/ADR leukemia studies the tumor cells were implanted either IP or intravenously (IV) on day zero and treatment was started on day one. For B16 melanoma (B16) studies, the tumor cells were implanted IP on day zero and treatment was started on day one. Tirered controls were also included to facilitate the calculation of tumor cell kill. For mammary carcinoma MX-1 studies, tumors were implanted with 1) subcutaneously (sc) (14-mg fragment of s.c. donor tumor) in the axillary region or 2) under the subrenal capsule (src) (10×10×10 ocular micrometer unit fragment of s.c. donor tumor). Treatment started on the day after subrenal capsule tumor implant or when the subcutaneous tumor implant had reached 100-700 mg.
(§7) Quantitative end points used assess antitumor activity included % Increased Life Span (% ILS), Tumor Cell Kill (Log10 kill), and Tumor Growth Inhibition (T/C). Long Term Survivors (45 or 60 day) were excluded from calculations of % ILS and Tumor Cell Kill.
(§8) Endpoints were calculated as follows: % ILS [formula] where Dt is the median day of death for treated and Dc is the median day of death for control groups. A % ILS ≥20 or ≥25 for P388 and B16 intraperitoneal models, respectively, is indicative of a significant degree of antitumor activity. A % ILS ≥75 or ≥50 for P388 and B16 intraperitoneal models, respectively, is indicative of a high degree of antitumor activity and is the level used by National Cancer Institute to justify further development if other requirements are met (termed DN-2 level activity). Minimum quantitative activity limits for additional P388 models (e.g. P388/ADR and P388, IJV) have not been defined. However, the activity limits specified for the intraperitoneal models may be applied as in the majority of instances these models are found to be signficantly […] challenging.
(§9) The log10 cell kill was calculated from the following formula: [formula] where T-C is the tumor difference in the median day of death between the treated (T) and the control (C) groups and Td is the tumor doubling time (in days), the latter estimated from the best fit straight line from a log-linear growth plot of the control-group tumors in exponential growth. The conversion of the T-C values to log10 cell kill is possible because the Td for tumors regrowing post-treatment approximated the Td values of the tumors in untreated control mice.

Another data set deals with B16 melanoma (B16). Briefly: In vivo antitumor assay, B16(ip). Details: species or system mouse. To be noted: drug route ip; for ILS %: qd 1,5,9, increased life span; for LOG KILL: qd 1,5,9, log10 cell kill.
Description: as §4, §5, §6, §7, §8, §9

Data set [4] is described as follows: In vivo antitumor assay, Panc03(sc). More on the design: species or system mouse. To be noted: mouse, in vivo.
Description: as §4, §5
(§10) Chemotherapy: For pancreatic ductal adenocarcinoma No. 3, colon adenocarcinoma No. 38 (colo38), lung carcinoma No. 12 (LC12) and both adriamycin-sensitive (RP) and -resistant ADR) mammary ductal adenocarcinoma No. 16 (Mam16) tumors, the following methods were used to help ensure a more uniform tumor burden per mouse (thus reducing the requirement for greater numbers of mice per group), bilateral tumor implants were used. The animals necessary to begin an experiment were pooled, implanted bilaterally s.c. on day zero with 30-60-mg tumor fragments using a 12-gauge trocar, and again pooled before randomization to the various treatment and control groups. Chemotherapy was started within three days after tumor implantation while the number of cells per mouse was relatively small (1×10^7 […]).
as §7, §9
(§11) Tumors were measured with a caliper once or twice weekly (as needed) until either tumors exceeded 1600 mg or cure was assured. Tumor weights were estimated from two-dimensional measurements: Tumor Weight (mg)=(a×b^2) / 2, where a and b are the tumor length and width (nun) respectively. Measurements were carried out simultaneously in both treatment and control groups. When the control group tumors reached approximately 750-1500 mg in size (median of group), the median tumor weight of each group was determined (including zeros). The T/C value in percent is an indiation of antitumor effectiveness. The % T/C was calculated from the following formula for solid murine tumor models: [formula] where T and C are median tumor weights of the treatment and control groups, respectively. A T/C equal to or less than 42% is considered significant antitumor activity. […]

The test system of data set [5] is pancreatic ductal adenocarcinoma No. 03 (Panc 03). Briefly: In vivo antitumor assay, Panc03(sc). More on the design: species or system mouse.
Description: as §4, §5, §10, §7, §9, §11

The mark [6] stands for this setting: drug route iv, Ex 26 qd 4-11, Ex 30 qd 3-11, Ex 33 qd 3-4,7,10, read-out: MTD.
Setting [7] is: drug route iv, Ex 26 qd 4-11, Ex 30 qd 3-11, Ex 33 qd 3-4,7,10.

Consider `Cc1cc(-c2c(F)cc3c(=O)c(Cc4c(O)cccc4O)cn(C4CC4)c3c2F)cc(C)n1` [Example 26, 1-Cyclopropyl-6,8-difluoro-7-[2,6-dimethyl-4-pyridinyl]-3-[2,6-dihydroxyphenylmethyl]-1,4-dihydroquinoline-4-one], for which the results for the half-maximal inhibitory concentration (IC50) in data set [1] and in data set [2] were 250 nM and 55 nM, respectively. In addition, the MTD in data set [3] was 8.1 mg/kg; in data set [4] (setting [6]), 12 mg/kg; in data set [4] (drug route sc, Ex 26 qd 3,5-7 bid 4, read-out: MTD) it was 840 mg/kg. Besides, in the data set with B16 melanoma (B16), the ILS % is listed as 94%. For the same compound, the “LOG KILL” value in the data set with B16 melanoma (B16) was determined as 2.2; in data set [5] (drug route iv, qd 4-11, log10 cell kill), 1.7. Moreover, the T/C % is 0% in data set [5] (setting [7]) and 19% in data set [5] (drug route sc, Ex 3 qd 3-12, Ex 26 qd 3,5-7 bid 4).
Turning to `Cc1cc(-c2c(F)cc3c(=O)c(Cc4ccccc4O)cn(C4CC4)c3c2F)cc(C)n1` [Example 30], the IC50 in data set [1] came to 670 nM; in data set [2], 290 nM. Also, the MTD in data set [3] is 304 mg/kg; in data set [4] (setting [6]), 235 mg/kg. Besides, the ILS % in the data set on B16 melanoma (B16) turned out to be 88%. Further, in the data set with B16 melanoma (B16), the “LOG KILL” value was 2.0. This compound also registered a T/C % in data set [5] (setting [7]) of 5%.
For the compound `Cc1cc(-c2c(F)cc3c(=O)c(Cc4ccc(O)cc4O)cn(C4CC4)c3c2F)cc(C)n1` [Example 33], the figures for the IC50 in data set [1] and in data set [2] were 210 nM and 61 nM, respectively. Also, the MTD in data set [3] and in data set [4] (setting [6]) was 19 mg/kg in each case. In the data set on B16 melanoma (B16), this compound displayed an ILS % of 94%. The “LOG KILL” value in the data set on B16 melanoma (B16) was 2.2. The T/C % in data set [5] (setting [7]) was found to be 73%.

By IC50 is commonly meant the point on the concentration scale where inhibition reaches its midpoint.

Source of the values: patent US5330992A, “1-cyclopropyl-4-pyridyl-quinolinones” (priority 1992, dated 1994).
